Laboratory results: PMC11052071, “Novel JAK Inhibitors to Reduce Graft-Versus-Host Disease after Allogeneic Hematopoietic Cell Transplantation in a Preclinical Mouse Model” (Molecules, 2024)
pIC50: −log10 of the molar value.

Legend:
[1] = Mouse PK after subcutaneous injection; type: in vivo; details: 2 mg/kg s.c., CD-1 mice, time points up to 6 h; WU derivatives compared to BARI
[2] = test system: phosphorylation of STAT1, STAT3, and STAT5; test: STAT phosphorylation in primary human T cells (Western blotting); type: cell-based; details: starvation 1 h, stimulated with 10 ng/mL IFN-α
Excerpt: Subsequently, we examined the ability of WU4 and WU8 to inhibit JAK signaling by measuring the levels of phosphorylation of STATs, downstream transcription factors of JAK signaling. […] This inhibitory capacity of WU4 and WU8 correlates with their IC50 values (Figure 1J) and the ability to reduce CXCR3 expression (Figure 3). We then decided to further investigate WU4 and WU8 as potent novel JAK inhibitors for the prevention of GvHD in our preclinical mouse model of allo-HCT.
Figure 4 Effect of WU4 and WU8 on the inhibition of JAK signaling in primary human T cells. STAT phosphorylation was determined as the indicator of JAK signaling. Primary human T cells were obtained from the peripheral blood of healthy donors. […] The phosphorylation of STATs was measured by Western blotting. Total […] and GAPDH served as loading controls.

JAK3 = biological target: T1, JAK3 (Homo sapiens, UniProt P52333); test: Z'-LYTE enzyme activity assay (SelectScreen Kinase Profiling), JAK3
T1 sequence (P52333 1-1124): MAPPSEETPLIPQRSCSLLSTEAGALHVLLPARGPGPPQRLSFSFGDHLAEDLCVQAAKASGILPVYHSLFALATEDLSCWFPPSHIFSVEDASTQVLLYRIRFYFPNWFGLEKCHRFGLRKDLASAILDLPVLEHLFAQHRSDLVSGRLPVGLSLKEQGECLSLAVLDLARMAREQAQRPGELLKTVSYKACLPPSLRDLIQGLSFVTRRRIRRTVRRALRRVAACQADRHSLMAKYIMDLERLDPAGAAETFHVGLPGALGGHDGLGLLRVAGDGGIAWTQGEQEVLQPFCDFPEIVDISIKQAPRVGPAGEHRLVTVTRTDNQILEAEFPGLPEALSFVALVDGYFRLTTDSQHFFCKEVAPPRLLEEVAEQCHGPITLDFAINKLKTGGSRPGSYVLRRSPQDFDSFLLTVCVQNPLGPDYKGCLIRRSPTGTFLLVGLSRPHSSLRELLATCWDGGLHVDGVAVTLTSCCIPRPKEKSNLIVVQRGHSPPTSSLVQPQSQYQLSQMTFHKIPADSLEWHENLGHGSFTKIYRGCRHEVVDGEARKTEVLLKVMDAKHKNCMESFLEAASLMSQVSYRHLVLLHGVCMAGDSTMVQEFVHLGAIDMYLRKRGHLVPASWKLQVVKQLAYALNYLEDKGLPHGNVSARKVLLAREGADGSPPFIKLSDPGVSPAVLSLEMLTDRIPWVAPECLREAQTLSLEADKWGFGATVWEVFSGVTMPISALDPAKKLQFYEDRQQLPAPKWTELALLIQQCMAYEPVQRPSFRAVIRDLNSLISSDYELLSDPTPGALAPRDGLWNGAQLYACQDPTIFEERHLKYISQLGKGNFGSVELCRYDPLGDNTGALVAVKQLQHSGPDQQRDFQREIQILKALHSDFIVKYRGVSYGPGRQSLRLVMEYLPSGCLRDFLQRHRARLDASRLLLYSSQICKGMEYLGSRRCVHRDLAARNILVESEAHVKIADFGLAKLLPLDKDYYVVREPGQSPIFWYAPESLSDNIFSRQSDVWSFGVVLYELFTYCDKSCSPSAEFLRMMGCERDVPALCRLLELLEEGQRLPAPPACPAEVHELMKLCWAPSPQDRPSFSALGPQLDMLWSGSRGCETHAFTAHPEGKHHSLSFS

T-bet = T-bet expression in activated primary murine T cells (flow cytometry); type: cell-based, B6 mice; details: anti-CD3/CD28 activation beads, 3 days, dose-dependent
Excerpt: WU6 is a derivative of WU4, incorporating a trifluoromethane sulfonamide for WU6 instead of an ethyl sulfonamide for WU4. […]. […] Subsequently, we examined the effect of WU6 on the expression of CXCR3 and T-bet (the master transcription factor of Th1 and cytotoxic T cell differentiation) in primary murine T cells.
Figure 8 Effect of WU6 on the expression of CXCR3 and T-bet in vitro and GvHD in mouse model of allo-HCT. (A–D) Primary T cells were isolated from B6 and treated with WU6 at indicated doses for 3 days in the presence of anti-CD3/CD28 activation beads. After 3 days, the expression of CXCR3 (A,B) and T-bet (C,D) in the CD4 and CD8 was determined by flow cytometry. Survival rate and (E) clinical GvHD scores (F) of mice treated with WU6 after allo-HCT. (G,H) % BM-derived B cells (B220+) and T cells (CD3+) were examined in the peripheral blood on day 27 after allo-HCT. * p < 0.05, ** p < 0.01, and *** p < 0.001. All error bars are represented as mean ± standard deviation.
T cells from in vitro primary murine T cell culture, fresh peripheral blood, or whole splenocytes were analyzed according to cell surface and intracellular markers. […] All cells were run on a ZE5 Cell Analyzer (BD Biosciences, Mountain View, CA, USA) or Attune® NxT (Thermofisher Scientific, Waltham, MA, USA) and analyzed with the FlowJo software, version 10.9.0 (FlowJo LLC., Ashland, OR, USA). […]

## CCS(=O)(=O)NC1CC2(C1)CC(CC#N)(n1cc(-c3ncnc4[nH]ccc34)cn1)C2 (centres unmarked) [WU4]
[1]
  plasma drug concentration (mouse PK): comparable PK to BARI throughout all time points
[2]
  phosphorylation of STATs: inhibit the phosphorylation of STAT1, STAT3, and STAT5
JAK3; IC50 JAK3, ATP at 1 mM
  pIC50: 7.08
JAK3; IC50 JAK3, ATP at app. Km
  pIC50: 8.94

## N#CCC1(n2cc(-c3ncnc4[nH]ccc34)cn2)CCS(=O)(=O)CC1 [WU8]
[1]
  plasma drug concentration (mouse PK): significant increase in plasma drug concentration at 2 h post-dose
[2]
  phosphorylation of STATs: inhibit the phosphorylation of STAT1, STAT3, and STAT5
JAK3; IC50 JAK3, ATP at 1 mM
  pIC50: 6.26
JAK3; IC50 JAK3, ATP at app. Km
  pIC50: 7.74

## N#CCC1(n2cc(-c3ncnc4[nH]ccc34)cn2)CC2(CC(NS(=O)(=O)C(F)(F)F)C2)C1 (centres unmarked) [WU6]
JAK3; IC50 JAK3, ATP at 1 mM
  pIC50: 6.51
JAK3; IC50 JAK3, ATP at app. Km
  pIC50: 8.19
T-bet
  T-bet expression in CD4 and CD8 T cells: significantly downregulated
